What was measured:
[1] = test system: HLA-DR4/huCD4 (DRB1*0401) Tg mice, CD8-depleted splenocytes; assay type: cell-based, mouse
[2] = test system: HLA-DR3 (DRB1*0301) Tg mice, CD8-depleted splenocytes; assay type: cell-based, mouse
[3] = test system: HLA-A2.1 (HLA-A*0201) Tg mice, CD4-depleted splenocytes; assay type: cell-based, mouse
[4] = test system: HLA-DR2 (DRB1*1501) Tg mice, CD8-depleted splenocytes; assay type: cell-based, mouse
[5] = target: HLA-DR4 (HLA-DRA*0101 / HLA-DRB1*0401) (human); test: cell-based or functional assay

| Substance | T cell activation of HLA transgenic mice (SFC/10^6) IFN-γ ELISpot, DR4 [1] [SFC/10^6] | T cell activation of HLA transgenic mice (SFC/10^6) IFN-γ ELISpot, DR3 [2] [SFC/10^6] | also measured |
| --- | --- | --- | --- |
| AEVRSYCYLATVSDLSTK [E 54-71] | 205 ± 56 |  |  |
| AHWTEARIMLDNINM [NS3 487-501] |  | 431 ± 112 | T cell activation of HLA transgenic mice (SFC/10^6) IFN-γ ELISpot, A2 [3]: 308 ± 188 SFC/10^6 |
| ALLTPGLRCLNLDVYRIL [NS2a 160-177] |  | 59 ± 3 | T cell activation of HLA transgenic mice (SFC/10^6) IFN-γ ELISpot, A2 [3]: 63 ± 18 SFC/10^6 |
| ARIMLDNINMPNGLIAQF [NS3 492-509] |  | 216 ± 42 |  |
| CLNLDVYRILLLMVGI [NS2a 168-183] |  | 231 ± 16 | T cell activation of HLA transgenic mice (SFC/10^6) IFN-γ ELISpot, DR2 [4]: 556 ± 33 SFC/10^6 |
| CYGGHTNEDDSNFAHW [NS3 474-489] |  | 83 ± 23 | T cell activation of HLA transgenic mice (SFC/10^6) IFN-γ ELISpot, A2 [3]: 92 ± 18 SFC/10^6 |
| DRRWCFDGPRTNTIL [NS3 560-574] |  | 225 ± 10 |  |
| DTGCAIDISRQELRCGSGV [NS1 1-19] |  | 572 ± 20 |  |
| DTPSPKEYKKGDTTTGVY [NS3 6-23] | 43 ± 6 |  |  |
| DYINTSLTSINVQASALF [NS4b 63-80] | 92 ± 13 | 386 ± 60 |  |
| EGRVEIDFDYCPGTTVTL [NS1 270-287] | 54 ± 6 |  |  |
| EKLQLKGTTYGVCSKAFK [E 293-310] | 47 ± 5 |  |  |
| EQQINHHWHKSGSSIGKA [E 390-407] |  | 50 ± 6 |  |
| EVITKLGERKILRPRWI [NS3 581-597] | 52 ± 11 |  |  |
| FAESNSGGDVVHLALMA [NS2a 65-81] | 60 ± 13 |  |  |
| FDGPRTNTILEDNNEVEV [NS3 565-582] |  | 59 ± 3 |  |
| FRSLFGGMSWITQGLLGA [E 450-467] |  | 104 ± 21 | T cell activation of HLA transgenic mice (SFC/10^6) IFN-γ ELISpot, A2 [3]: 205 ± 145 SFC/10^6; T cell activation of HLA transgenic mice (SFC/10^6) IFN-γ ELISpot, DR2 [4]: 261 ± 13 SFC/10^6 |
| GAGVMVEGVFHTLWHTTK [NS3 37-54] |  | 368 ± 66 | T cell activation of HLA transgenic mice (SFC/10^6) IFN-γ ELISpot, DR2 [4]: 149 ± 13 SFC/10^6 |
| GCWGQVTLTVTVTAATLL [NS4b 101-118] | 134 ± 8 |  |  |
| GKLITDWCCRSCTLPPLR [NS1 305-322] | 109 ± 22 | 557 ± 25 |  |
| GQVVTYALNTFTNLAVQL [NS5 605-622] | 240 ± 76 |  | T cell activation of HLA transgenic mice (SFC/10^6) IFN-γ ELISpot, DR2 [4]: 556 ± 27 SFC/10^6 |
| GRTILKENIKYEVAIFVH [E 127-144] |  | 198 ± 21 | T cell activation of HLA transgenic mice (SFC/10^6) IFN-γ ELISpot, DR2 [4]: 120 ± 1 SFC/10^6 |
| GVFIHNDVEAWMDRYKYY [NS1 18-35] |  | 52 ± 8 |  |
| GWPATEVMTAVGLMFAIV [NS2b 1-18] | 104 ± 18 |  |  |
| GWYDWQQVPFCSNHFTEL [NS5 704-721] | 65 ± 27 |  |  |
| HFMGKTWEALDTMYVVA [NS4a 15-31] | 187 ± 20 |  | T cell activation of HLA transgenic mice (SFC/10^6) IFN-γ ELISpot, DR2 [4]: 278 ± 26 SFC/10^6 |

| Substance | T cell activation of HLA transgenic mice (SFC/10^6) IFN-γ ELISpot, DR4 [1] [SFC/10^6] | T cell activation of HLA transgenic mice (SFC/10^6) IFN-γ ELISpot, DR3 [2] [SFC/10^6] | also measured |
| --- | --- | --- | --- |
| HKSGSSIGKAFTTTLKGA [E 398-415] |  | 88 ± 1 | T cell activation of HLA transgenic mice (SFC/10^6) IFN-γ ELISpot, DR2 [4]: 168 ± 18 SFC/10^6 |
| IKYEVAIFVHGPTTVESH [E 135-152] |  | 86 ± 13 |  |
| IVVGRGEQQINHHWHK [E 384-399] |  | 87 ± 16 |  |
| KVLIELEPPFGDSYIVV [E 370-386] | 148 ± 10 |  |  |
| LATVSDLSTKAACPTM [E 62-77] | 47 ± 4 |  | T cell activation of HLA transgenic mice (SFC/10^6) IFN-γ ELISpot, A2 [3]: 465 ± 343 SFC/10^6 |
| LAVGGVLLFLSVNVHA [E 486-501] |  | 244 ± 16 | T cell activation of HLA transgenic mice (SFC/10^6) IFN-γ ELISpot, A2 [3]: 323 ± 173 SFC/10^6; T cell activation of HLA transgenic mice (SFC/10^6) IFN-γ ELISpot, DR2 [4]: 214 ± 27 SFC/10^6 |
| LGALLLWMGINARDRSIA [E 465-482] |  | 330 ± 91 | T cell activation of HLA transgenic mice (SFC/10^6) IFN-γ ELISpot, A2 [3]: 310 ± 186 SFC/10^6; T cell activation of HLA transgenic mice (SFC/10^6) IFN-γ ELISpot, DR2 [4]: 490 ± 64 SFC/10^6 |
| LITAAAVTLWENGASSVW [NS4b 201-218] | 73 ± 8 | 99 ± 26 |  |
| LVAAVIGWMLGSNTMQRV [prM 136-153] | 327 ± 162 | 78 ± 35 | T cell activation of HLA transgenic mice (SFC/10^6) IFN-γ ELISpot, DR2 [4]: 235 ± 9 SFC/10^6 |
| LVKTESWILRNPGYALVA [prM 121-138] | 56 ± 6 |  | T cell activation of HLA transgenic mice (SFC/10^6) IFN-γ ELISpot, DR2 [4]: 130 ± 23 SFC/10^6 |
| LVQSYGWNIVTMKSGVDV [NS5 115-132] |  | 79 ± 23 |  |
| NEDDSNFAHWTEARIML [NS3 480-496] |  | 121 ± 1 |  |
| NMPNGLIAQFYQPEREKV [NS3 500-517] |  | 145 ± 49 | T cell activation of HLA transgenic mice (SFC/10^6) IFN-γ ELISpot, DR2 [4]: 51 ± 10 SFC/10^6 |
| NTFTNLAVQLVRMMEGEGV [NS5 613-631] | 119 ± 21 |  |  |
| NWVPTGRTTWSIHAGGEW [NS5 791-808] | 78 ± 17 |  |  |
| PATAWSLYAVTTAVLTPL [NS4b 38-55] |  | 67 ± 13 | T cell activation of HLA transgenic mice (SFC/10^6) IFN-γ ELISpot, DR2 [4]: 57 ± 11 SFC/10^6 |
| PFVDVGVSALLLAAGCW [NS4b 87-103] | 59 ± 14 |  |  |
| PREHNGNEIVDVMCHATL [NS3 249-266] | 46 ± 16 |  | T cell activation of HLA transgenic mice (SFC/10^6) IFN-γ ELISpot, A2 [3]: 79 ± 27 SFC/10^6; T cell activation of HLA transgenic mice (SFC/10^6) IFN-γ ELISpot, DR2 [4]: 139 ± 25 SFC/10^6 |
| RGWGNGCGLFGKGSI [E 99-113] |  | 79 ± 7 |  |
| RLNDTWKLERAVLGEVK [NS1 205-221] | 61 ± 15 |  |  |
| RQELRCGSGVFIHNDVEA [NS1 10-27] | 63 ± 8 |  |  |
| RVVFVVLLLLVAPAYS [prM 152-167] | 117 ± 10 | 90 ± 47 | T cell activation of HLA transgenic mice (SFC/10^6) IFN-γ ELISpot, A2 [3]: 318 ± 179 SFC/10^6; T cell activation of HLA transgenic mice (SFC/10^6) IFN-γ ELISpot, DR2 [4]: 269 ± 30 SFC/10^6 |
| SGCWYGMEIRPQRHDEK [NS1 327-343] | 78 ± 4 |  |  |
| SQIGLIEVLGKMPEHFM [NS4a 1-17] |  | 132 ± 17 |  |
| VAAEMAEALRGLPIRY [NS3 228-243] | 46 ± 9 |  |  |
| VFHTLWHTTKGAALM [NS3 45-59] |  | 63 ± 10 |  |

| Substance | T cell activation of HLA transgenic mice (SFC/10^6) IFN-γ ELISpot, DR4 [1] [SFC/10^6] | T cell activation of HLA transgenic mice (SFC/10^6) IFN-γ ELISpot, DR3 [2] [SFC/10^6] | also measured |
| --- | --- | --- | --- |
| VFTSVGKAVHQVFGGAFR [E 434-451] |  | 79 ± 19 | T cell activation of HLA transgenic mice (SFC/10^6) IFN-γ ELISpot, DR2 [4]: 116 ± 5 SFC/10^6 |
| VHQVFGGAFRSLFGGMSW [E 442-459] |  | 101 ± 15 | T cell activation of HLA transgenic mice (SFC/10^6) IFN-γ ELISpot, A2 [3]: 442 ± 313 SFC/10^6; T cell activation of HLA transgenic mice (SFC/10^6) IFN-γ ELISpot, DR2 [4]: 117 ± 5 SFC/10^6 |
| VTVNPFVSVATANAKVLI [E 356-373] | 217 ± 51 |  |  |
| VVNPSVKTVREAGILITA [NS4b 187-204] | 83 ± 13 |  |  |
| VWLAYKVAAAGVSYHDRR [NS3 545-562] |  | 110 ± 9 |  |
| WDFGSVGGVFTSVGKAVH [E 426-443] |  | 83 ± 13 |  |
| WHTTKGAALMSGEGRL [NS3 50-65] |  | 191 ± 37 |  |
| WNV E 54-71 peptide |  |  | IFN-γ ELISpot (SFC/10^6) [5]: 205 SFC/10^6 |
| WNV E 293-310 peptide |  |  | IFN-γ ELISpot (SFC/10^6) [5]: 47 SFC/10^6 |
| WNV NS1 10-27 peptide |  |  | IFN-γ ELISpot (SFC/10^6) [5]: 63 SFC/10^6 |
| WNV NS1 205-221 peptide |  |  | IFN-γ ELISpot (SFC/10^6) [5]: 61 SFC/10^6 |
| WNV NS1 270-287 peptide |  |  | IFN-γ ELISpot (SFC/10^6) [5]: 54 SFC/10^6 |
| WNV NS1 327-343 peptide |  |  | IFN-γ ELISpot (SFC/10^6) [5]: 78 SFC/10^6 |
| WNV NS2a 65-81 peptide |  |  | IFN-γ ELISpot (SFC/10^6) [5]: 60 SFC/10^6 |
| WNV NS2b 1-18 peptide |  |  | IFN-γ ELISpot (SFC/10^6) [5]: 104 SFC/10^6 |
| WNV NS3 6-23 peptide |  |  | IFN-γ ELISpot (SFC/10^6) [5]: 43 SFC/10^6 |
| WNV NS3 228-243 peptide |  |  | IFN-γ ELISpot (SFC/10^6) [5]: 46 SFC/10^6 |
| WNV NS3 581-597 peptide |  |  | IFN-γ ELISpot (SFC/10^6) [5]: 52 SFC/10^6 |
| WNV NS4b 101-118 peptide |  |  | IFN-γ ELISpot (SFC/10^6) [5]: 134 SFC/10^6 |
| WNV NS4b 187-204 peptide |  |  | IFN-γ ELISpot (SFC/10^6) [5]: 83 SFC/10^6 |
| WNV NS5 704-721 peptide |  |  | IFN-γ ELISpot (SFC/10^6) [5]: 65 SFC/10^6 |
| WNV NS5 771-788 peptide |  |  | IFN-γ ELISpot (SFC/10^6) [5]: 135 SFC/10^6 |
| WNV NS5 791-808 peptide |  |  | IFN-γ ELISpot (SFC/10^6) [5]: 78 SFC/10^6 |
| YFHRRDLRLMANAICSAV [NS5 771-788] | 135 ± 47 |  |  |
